From patent US20250228818A1, “PHARMACEUTICAL COMBINATION CONTAINING CAPSID PROTEIN INHIBITOR AND REVERSE TRANSCRIPTASE INHIBITOR” (priority 2021, published 2025)

Test system: rAAV8-1.3HBV
Assay: AAV/HBV mouse model experiment (serum HBV DNA)
Format: in vivo, mouse (male, C57BL/6)
Settings: mean ± standard error; for HBV DNA in mouse serum, day 7 / HBV DNA in mouse serum, day 14 / HBV DNA in mouse serum, day 21 / HBV DNA in mouse serum, day 28: i.g. QD day 0-27; for HBV DNA in mouse serum, day −2: day −2 (before first administration)
Procedure: rAAV8-1.3HBV (source: Beijing FivePlus Molecular Medicine Institute, titer: 1×10^12 v·g/mL) was used to establish an AAV/HBV mouse model (species: male, C57BL/6), and the mice were randomized into groups.
The compound of formula I was dissolved in DMSO, and PEG-400 was added to prepare a 1 mg/mL clear solution, which was then gradually diluted with the vehicle to 0.3 mg/mL, 0.1 mg/mL, and 0.03 mg/mL. After preparation, the dilutions were stored at room temperature.
Entecavir was dissolved in DMSO to prepare a 1 mg/mL solution, which was then gradually 1000-fold diluted with normal saline (NS) to 0.001 mg/mL. The dilution was aliquoted at 1 mL/tube to serve as a stock solution and stored in a freezer at −20° C. Each day, one tube was taken, and the solution in the tube was 10-fold diluted with NS to achieve the required administration concentration of 0.0001 mg/mL for daily administration.
rAAV8-1.3HBV (type D, ayw) was purchased from Beijing FivePlus Gene Technology Co., Ltd., with a titer of 1×10^12 v·g/mL.
Hepatitis B virus nucleic acid assay kit (Sansure Biotech Inc.), high-speed refrigerated centrifuge (Sorvall Legend), and real-time fluorescent quantitative PCR instrument (TL988).
AAV-HBV mouse model: rAAV8-1.3HBV was prepared into a solution with a concentration of 5×10^11 v·g/mL by sterile PBS in advance before injection. Each mouse was injected with 200 μL of the solution via the tail vein, with 1×10^11 v·g per mouse.
Blood sampling before grouping: On day 14 after the virus injection, all infected mice were subjected to blood sampling (approximately 100 μL per mouse) via the orbital vein for serum collection. After the whole blood was left to stand at room temperature for 30 min, serum was collected by centrifugation at 3000 rpm at 4° C. for 10 min. The collected serum was stored at −80° C. for HBV DNA, HBeAg and HBsAg detection.
Compound treatment: All mice were subjected to intragastric administration with the solvent or the compound. The day of the first administration was set as day 0 of the experiment, and the duration of administration was from day 0 to day 27. Entecavir was administered once daily (QD), and the compound of formula I was administered […]. The administration volume was 10 mL/kg.
The experimental method referred to the instructions of the hepatitis B virus nucleic acid assay kit. 5 μL of the nucleic acid release agent was added into each PCR reaction tube, and then 5 μL of the test serum, a negative control, a positive control and a quantitative reference substance were added separately. The mixture was then lysed for 10 min, and then 40 μL of PCR-mix was added, achieving a total volume of 50 μL in the system. Reaction conditions: 50° C. for 2 min, 1 cycle; 94° C. for 5 min, 1 cycle; 94° C. for 15 s, 57° C. for 30 s, 45 cycles; 25° C. for 10 s, 1 cycle. 2.4. Results in Tables 4-1 and 4-2

[1] = compound of formula I 10 mg/kg (iv), with entecavir 0.001 mg/kg (vi)
[2] = entecavir 0.001 mg/kg (ii), compound of formula I 1 mg/kg (iii), both (v)
[3] = groups: entecavir 0.001 mg/kg (ii), compound of formula I 1 mg/kg (iii), both (v)

SMILES	HBV DNA in mouse serum, day 7 [1]	HBV DNA in mouse serum, day 7 [2]	HBV DNA in mouse serum, day 14 [1]	HBV DNA in mouse serum, day 14 [2]	HBV DNA in mouse serum, day 21 [1]	HBV DNA in mouse serum, day 21 [2]	HBV DNA in mouse serum, day 28 [1]	HBV DNA in mouse serum, day 28 [2]	HBV DNA in mouse serum, day 35 (day 35 (administration ended day 27), compound of formula I 10 mg/kg (iv), with entecavir 0.001 mg/kg (vi))	HBV DNA in mouse serum, day 42 (day 42 (administration ended day 27), compound of formula I 10 mg/kg (iv), with entecavir 0.001 mg/kg (vi))	HBV DNA in mouse serum, day −2 (groups: compound of formula I 10 mg/kg (iv), with entecavir 0.001 mg/kg (vi))	HBV DNA in mouse serum, day −2 [3]
Cc1c(C(=O)Nc2ccc(F)c(C#N)c2)c(C)n(C)c1C(=O)C(=O)N[C@@H](C)C(F)(F)F [Compound of formula I, (S)—N-(3-cyano-4-fluorophenyl)-1,2,4-trimethyl-5-(2-oxo-2-((1,1,1-trifluoropropan-2-yl)amino)acetyl)-1H-pyrrole-3-carboxamide]	4.72 ± 0.86 log10, copy/μL	6.16 ± 0.36 log10, copy/μL	3.97 ± 0.45 log10, copy/μL	5.48 ± 0.34 log10, copy/μL	3.97 ± 0.31 log10, copy/μL	5.23 ± 0.33 log10, copy/μL	3.75 ± 0.35 log10, copy/μL	5.42 ± 0.38 log10, copy/μL	3.77 ± 0.45 log10, copy/μL	5.18 ± 0.74 log10, copy/μL	7.97 ± 0.22 log10, copy/μL	7.71 ± 0.27 log10, copy/μL
C=C1[C@H](CO)[C@@H](O)C[C@@H]1n1cnc2c(=O)[nH]c(N)nc21 [Entecavir, 2-amino-9-[(1S,3R,4S)-4-hydroxy-3-hydroxymethyl-2-methylenecyclopentyl]-1,9-dihydro-6H-purin-6-one, reference compound]		5.17 ± 0.54 log10, copy/μL		5.30 ± 0.30 log10, copy/μL		5.22 ± 0.46 log10, copy/μL		5.46 ± 0.45 log10, copy/μL				7.78 ± 0.28 log10, copy/μL
